# Reference: article doi:10.1101/2024.08.19.608619, “Discovery of potent SARS-CoV-2 nsp3 macrodomain inhibitors uncovers lack of translation to cellular antiviral response” (bioRxiv, 2024)
# Several values for one entry are separate records, joined by “and”; a condition that tells them apart may be missing. Identical values can stand only once. Like-named read-outs stand apart in the source and are kept apart here.
# Columns and labels:
# HeLa-ACE2 cells = settings: for perc_max_measured: highest measured response of the dose series; for perc_min_measured: lowest measured response of the dose series
# [1] = system: SARS-CoV-2, isolate USA-WA1/2020; assay: microbe, parasite or virus in culture; assay type: cell-based; settings: HeLa-ACE2 SARS-CoV-2 antiviral effect without P-gp inhibitor; for perc_max_measured: maximum measured response of dose series; for perc_min_measured: minimum measured response of dose series; for EC50: read-out: ec50; for EC90: read-out: ec90
# [2] = Hepatic microsomal stability, MLM; assay type: in vitro ADME; settings: In vitro mouse liver microsomal stability; for perc_remaining_no_cofactor: no cofactor
# [3] = Permeability Papp (AB) MDR1/MDCKII; settings: for papp_a_to_b_mean / perc_recovery_a_to_b_mean / papp_b_to_a_mean / efflux_ratio / perc_recovery_b_to_a_mean: In vitro MDR1-MDCKII permeability; for papp_a_to_b_mean: A to B; for perc_recovery_a_to_b_mean / perc_recovery_a_to_b_inhibitor_mean: recovery A to B; for perc_recovery_b_to_a_mean / perc_recovery_b_to_a_inhibitor_mean: recovery B to A
# in vitro = settings: human, hela-ace2 cells, 50.0
# [4] = In vitro kinetic solubility; settings: In vitro kinetic solubility, ph 7.4
# [5] = Hepatic microsomal stability, HLM; assay type: in vitro ADME, human; settings: In vitro human liver microsomal stability; for perc_remaining_no_cofactor: no cofactor
# LogD = settings: pH 7.4; In vitro LogD
# [6] = MDR1-MDCKII, with inhibitor Cyclosporin A
# [7] = MDR1-MDCKII, with inhibitor Verapamil
# [8] = protocol HeLa-ACE2 cytotoxicity
Compound,CC50 (HeLa-ACE2 cells; HeLa-ACE2 cytotoxicity) [µM],cc10 (HeLa-ACE2 cells; HeLa-ACE2 cytotoxicity) [µM],perc_max_measured (HeLa-ACE2 cells; HeLa-ACE2 cytotoxicity) [%],perc_min_measured (HeLa-ACE2 cells; HeLa-ACE2 cytotoxicity) [%],perc_max_measured [1] [%],perc_min_measured [1] [%],EC50 [1] [µM],EC90 [1] [µM],clint [2] [µL/min/mg],perc_remaining [2] [%],t_half [2] [min],perc_remaining_no_cofactor [2] [%],papp_a_to_b_mean ([3]; mean) [×10⁻⁶ cm/s],CC50 at 24 h (in vitro) [µM],solubility_mean [4] [µM],clint [5] [µL/min/mg],perc_remaining [5] [%],t_half [5] [min],perc_remaining_no_cofactor [5] [%],logd (LogD),also measured
"CNCc1cc(-c2cc3c(N[C@H](c4ccc5c(c4)S(=O)(=O)CCC5)C(C)C)ncnc3[nH]2)co1 (single isomer, unassigned) [ASAP-0011169]",> 20,> 20.0,96.832,86.562,94.818,27.713,11.1,> 20,40.0,51.0,41.8,96.0,0.483,> 20,358,67.0,33.0,25.1,98.0,2.1,perc_recovery_a_to_b_mean ([3]; mean): 63.8%
"CC(C)[C@H](Nc1ncnc2[nH]c(-c3cnn(C)c3C#N)cc12)c1ccc2c(c1)S(=O)(=O)CCC2 (single isomer, unassigned) [ASAP-0011144]",> 20,> 20.0,100.779,87.504,129.006,5.734,6.21,7.19,311.0,1.0,5.4,90.0,4.33,> 20,22,935.0,0.0,1.8,101.0,3.3,"papp_a_to_b_mean ([3]; no inhibitor): 0.109 ×10⁻⁶ cm/s and 0.101 ×10⁻⁶ cm/s; papp_b_to_a_mean ([3]; B to A, no inhibitor): 6.0 ×10⁻⁶ cm/s and 7.2 ×10⁻⁶ cm/s; efflux_ratio ([3]; no inhibitor): 54.9 and 71.8; perc_recovery_a_to_b_mean ([3]; mean): 71.4%; perc_recovery_a_to_b_mean ([3]; no inhibitor): 95.4% and 83.3%; perc_recovery_b_to_a_mean ([3]; no inhibitor): 82.4% and 102.0%; perc_recovery_a_to_b_inhibitor_mean [3, 6]: 78.3%; perc_recovery_a_to_b_inhibitor_mean [3, 7]: 84.6%; perc_recovery_b_to_a_inhibitor_mean [3, 6]: 76.3%; perc_recovery_b_to_a_inhibitor_mean [3, 7]: 95.9%"
"CC(C)[C@H](Nc1ncnc2[nH]c(-c3cnn(C)c3C#N)cc12)c1ccc2c(n1)NC(=O)CO2 (single isomer, unassigned) [ASAP-0011177]",> 20,> 20.0,109.886,55.576,70.604,3.388,0.858,> 20,131.0,12.0,12.8,85.0,9.35,> 20,28,137.0,10.0,12.2,92.0,3.7,"papp_a_to_b_mean ([3]; no inhibitor): 0.0964 ×10⁻⁶ cm/s; papp_b_to_a_mean ([3]; B to A, no inhibitor): 6.5 ×10⁻⁶ cm/s; efflux_ratio ([3]; no inhibitor): 67.2; perc_recovery_a_to_b_mean ([3]; mean): 80.2%; perc_recovery_a_to_b_mean ([3]; no inhibitor): 69.4%; perc_recovery_b_to_a_mean ([3]; no inhibitor): 79.8%; perc_recovery_a_to_b_inhibitor_mean [3, 7]: 78.2%; perc_recovery_b_to_a_inhibitor_mean [3, 7]: 81.1%"
CCNC(=O)c1cc2c(N[C@@H](c3ccc4c(c3)S(=O)(=O)CCO4)C(C)C)ncnc2[nH]1 (racemic) [ASAP-0012317],> 20,> 20.0,105.961,74.573,111.753,79.377,> 20,> 20,26.0,66.0,65.5,99.0,–,> 20,328,64.0,33.0,26.2,95.0,2.9,"papp_b_to_a_mean ([3]; B to A, no inhibitor): 1.5 ×10⁻⁶ cm/s and 1.4 ×10⁻⁶ cm/s; efflux_ratio ([3]; no inhibitor): 20.3 and 15.3; perc_recovery_a_to_b_mean ([3]; no inhibitor): 71.9% and 74.3% and 65.2%; perc_recovery_b_to_a_mean ([3]; no inhibitor): 68.3% and 88.2%; papp_b_to_a_inhibitor_mean ([3]; MDR1-MDCKII, B to A, with inhibitor Verapamil): 1.5 ×10⁻⁶ cm/s; perc_recovery_a_to_b_inhibitor_mean [3, 6]: 82.7%; perc_recovery_a_to_b_inhibitor_mean [3, 7]: 92.9%; perc_recovery_b_to_a_inhibitor_mean [3, 6]: 89.0%; perc_recovery_b_to_a_inhibitor_mean [3, 7]: 90.3%"
CC(C)[C@@H](Nc1ncnc2[nH]cc(C(=O)NC3CC3)c12)c1ccc2c(c1)S(=O)(=O)CCC2 [ASAP-0011207],> 20,> 20.0,109.458,97.44,103.36,37.723,14.4,> 20,1740.0,0.0,1.0,102.0,2.97,> 20,216,409.0,0.0,4.1,111.0,3.2,perc_recovery_a_to_b_mean ([3]; mean): 85.8%
CNC(=O)c1cccc(-c2cc3c(N[C@@H](c4ccc5c(c4)S(=O)(=O)CCC5)C(C)C)ncnc3[nH]2)c1 [ASAP-0012344],–,–,–,–,108.746,56.34,> 20,> 20,882.0,1.0,1.9,101.0,–,> 20,15,455.0,0.0,3.7,93.0,3.7,CC50 (HeLa-ACE2 cells; [8]): > 20 µM; cc10 (HeLa-ACE2 cells; [8]): > 20.0 µM; perc_max_measured (HeLa-ACE2 cells; [8]): 109.077%; perc_min_measured (HeLa-ACE2 cells; [8]): 84.376%; papp_a_to_b_mean ([3]; no inhibitor): 0.627 ×10⁻⁶ cm/s; perc_recovery_a_to_b_mean ([3]; no inhibitor): 67.1%
